Measured values published in ChEMBL document CHEMBL1129258, “Synthesis and structure-activity relationships of 2-pyridones: a novel series of potent DNA gyrase inhibitors as antibacterial agents” (J Med Chem, 1996).
Values after ≈ are worked out from the molar mass of the structure shown.

Key:
Enterococcus faecium = assay: Inhibitory activity against enterococcus faecium Van A; type: functional
Enterococcus faecalis = assay: Inhibitory activity against enterococcus faecalis Van B; type: functional
[1] = molecular target: T1, DNA gyrase (Escherichia coli) (UniProt P0AES6+P0AES4); assay: In vitro antibacterial activity against gram-negative organism […] ATCC 13048; type: functional; conditions: Enterobacter aerogenes
[2] = molecular target: T1, DNA gyrase (Escherichia coli); assay: In vitro antibacterial activity against gram-positive organism Streptococcus bovis A-5169; type: functional; conditions: Streptococcus equinus
[3] = molecular target: T1, DNA gyrase (Escherichia coli); assay: In vitro antibacterial activity against gram-negative organism Klebsiella pneumoniae ATCC 8045; type: functional
[4] = In vitro antibacterial activity against gram-negative organism Pseudomonas aeruginosa DPHD-2862; type: functional
[5] = In vitro antibacterial activity against gram-negative organism Pseudomonas aeruginosa 5007; type: functional; conditions: Pseudomonas aeruginosa; read-out: MIC
Streptococcus pneumoniae [6] = assay: (§1) In vivo efficacy against Strep. administration; type: functional
[7] = molecular target: T2, DNA gyrase (Staphylococcus aureus) (UniProt P0A0K8+P20831); assay: In vivo efficacy against Staphylococcus aureus NCTC-10649M after subcutaneous administration; type: functional, organism-based
T2 sequence (P0A0K8 2-644 limits assumed): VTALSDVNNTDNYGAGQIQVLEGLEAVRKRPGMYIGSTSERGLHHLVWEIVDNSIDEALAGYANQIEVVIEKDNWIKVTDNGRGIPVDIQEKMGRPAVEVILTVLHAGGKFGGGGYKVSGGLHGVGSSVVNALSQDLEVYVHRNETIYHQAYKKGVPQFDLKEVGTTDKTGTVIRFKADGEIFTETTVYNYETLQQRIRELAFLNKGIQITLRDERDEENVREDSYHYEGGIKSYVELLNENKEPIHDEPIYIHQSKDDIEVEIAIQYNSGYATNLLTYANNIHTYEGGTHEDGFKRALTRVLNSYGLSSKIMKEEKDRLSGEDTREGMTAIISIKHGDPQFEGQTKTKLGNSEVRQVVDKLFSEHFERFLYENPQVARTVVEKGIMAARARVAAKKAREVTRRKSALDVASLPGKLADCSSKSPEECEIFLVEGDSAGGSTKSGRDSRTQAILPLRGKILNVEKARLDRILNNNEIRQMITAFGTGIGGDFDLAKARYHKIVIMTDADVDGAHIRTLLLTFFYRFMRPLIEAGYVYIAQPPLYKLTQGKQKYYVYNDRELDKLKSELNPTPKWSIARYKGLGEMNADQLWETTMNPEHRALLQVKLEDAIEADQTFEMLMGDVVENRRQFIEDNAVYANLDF
T2 sequence (P20831 whole entry partner): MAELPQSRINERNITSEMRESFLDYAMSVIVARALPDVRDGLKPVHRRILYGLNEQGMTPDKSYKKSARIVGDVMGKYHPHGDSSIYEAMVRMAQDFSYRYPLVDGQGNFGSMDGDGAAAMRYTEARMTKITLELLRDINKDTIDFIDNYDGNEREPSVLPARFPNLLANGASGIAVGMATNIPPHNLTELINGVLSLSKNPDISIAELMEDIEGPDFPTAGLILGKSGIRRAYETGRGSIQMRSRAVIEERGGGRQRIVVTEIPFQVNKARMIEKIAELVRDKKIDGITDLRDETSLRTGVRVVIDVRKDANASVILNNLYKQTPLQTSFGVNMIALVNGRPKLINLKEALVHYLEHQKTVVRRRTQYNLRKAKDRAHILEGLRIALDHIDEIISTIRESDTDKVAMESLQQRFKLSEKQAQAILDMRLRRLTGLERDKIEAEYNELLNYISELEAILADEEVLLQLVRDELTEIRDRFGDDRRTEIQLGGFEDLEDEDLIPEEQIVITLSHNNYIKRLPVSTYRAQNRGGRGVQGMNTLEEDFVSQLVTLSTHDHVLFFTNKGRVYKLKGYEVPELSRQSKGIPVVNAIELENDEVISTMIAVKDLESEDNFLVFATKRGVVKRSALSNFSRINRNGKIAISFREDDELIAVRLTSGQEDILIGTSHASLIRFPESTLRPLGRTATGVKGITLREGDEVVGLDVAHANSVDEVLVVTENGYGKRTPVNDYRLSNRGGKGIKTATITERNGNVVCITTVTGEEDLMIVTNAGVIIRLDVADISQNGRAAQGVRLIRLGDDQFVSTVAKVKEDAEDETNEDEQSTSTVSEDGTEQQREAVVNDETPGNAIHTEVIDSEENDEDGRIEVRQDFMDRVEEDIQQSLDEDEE

Streptococcus pneumoniae [8] = assay: as §1; type: functional; remark: listed apart in the source
[9] = molecular target: T2, DNA gyrase (Staphylococcus aureus); assay: In vitro antibacterial activity against gram-positive organism Staphylococcus aureus ATCC 6538p; type: functional
[10] = molecular target: T2, DNA gyrase (Staphylococcus aureus); assay: In vivo efficacy against Staphylococcus aureus NCTC-10649M after oral administration; type: functional, organism-based
[11] = molecular target: T1, DNA gyrase (Escherichia coli); assay: In vitro antibacterial activity against gram-negative organism Prov. stuartii CMX-640; type: functional; conditions: Providencia stuartii
[12] = molecular target: T1, DNA gyrase (Escherichia coli); assay: In vitro antibacterial activity against gram-positive organism Enterococcus faecium ATCC 8043; type: functional
[13] = molecular target: T2, DNA gyrase (Staphylococcus aureus); assay: In vitro antibacterial activity against gram-positive organism Staphylococcus aureus 1775; type: functional
[14] = molecular target: T2, DNA gyrase (Staphylococcus aureus); assay: In vitro antibacterial activity against gram-positive organism Staphylococcus aureus NCTC-10649M; type: functional
[15] = molecular target: T1, DNA gyrase (Escherichia coli); assay: In vitro antibacterial against gram-negative organism Escherichia coli JUHL; type: functional; conditions: Escherichia coli K-12
[16] = In vivo efficacy against Pseudomonas aeruginosa 5007 after subcutaneous administration; type: functional; conditions: Pseudomonas aeruginosa, sc; read-out: ED50
Streptococcus pyogenes = assay: In vitro antibacterial activity against gram-positive organism Streptococcus pyogenes EES61; type: functional
Streptococcus pneumoniae [17] = assay: In vivo efficacy against Strep. administered; type: functional
[18] = molecular target: T1, DNA gyrase (Escherichia coli); assay: In vivo efficacy against Escherichia coli JUHL after oral administration; type: functional, organism-based; conditions: Escherichia coli K-12
Pseudomonas aeruginosa = assay: In vivo efficacy against Pseudomonas aeruginosa 5007 following p.o. administration.
physchem = conditions: phosphate buffer, pH 7.4
Description: Aqueous solubility in pH 7.4 phosphate buffer (0.05 M) at 37 degree C

[19] = molecular target: T1, DNA gyrase (Escherichia coli); assay: In vivo efficacy against Escherichia coli JUHL by subcutaneous administration; type: functional, organism-based; conditions: Escherichia coli K-12
[20] = molecular target: T1, DNA gyrase (Escherichia coli); conditions: Escherichia coli K-12
Description: Concentration which causes 50% of the gyrase (Escherichia coli H560)-mediated maximal DNA cleavage.

Escherichia coli = assay: In vivo efficacy against Escherichia coli JUHL by orally administered.; type: functional; conditions: po
[21] = Maximum plasma concentration in rats after an oral dose of 5 mg/kg; conditions: rat
in vivo [22] = conditions: rat, po, 5 mg/kg
Description: Oral bioavailability in rat (dose 5 mg/kg)

in vivo [23] = conditions: rat, plasma, po, 5 mg/kg
[24] = Pseudomonas aeruginosa, read-out: MIC
[25] = Streptococcus pneumoniae, read-out: ED50
[26] = Streptococcus pyogenes, read-out: MIC

Structure (SMILES) | MIC (Enterococcus faecium) | MIC (Enterococcus faecalis) | MIC [1] | MIC [2] | MIC [3] | MIC [4, 24] | MIC [5] | ED50 [7] | ED50 (Streptococcus pneumoniae [8]) | MIC [9] | ED50 [10] | MIC [11] | MIC [12] | MIC [13] | MIC [14] | MIC [15] | ED50 [16] | ED50 (Pseudomonas aeruginosa) | ED50 [19] | CC50 [20] | other results
CN[C@H](CC(C)C)C(=O)N[C@H]1C(=O)N[C@@H](CC(N)=O)C(=O)N[C@H]2C(=O)N[C@H]3C(=O)N[C@H](C(=O)N[C@H](C(=O)O)c4cc(O)cc(O)c4-c4cc3ccc4O)[C@H](O)c3ccc(c(Cl)c3)Oc3cc2cc(c3O[C@@H]2O[C@H](CO)[C@@H](O)[C@H](O)[C@H]2O[C@H]2C[C@](C)(N)[C@H](O)[C@H](C)O2)Oc2ccc(cc2Cl)[C@H]1O [VANCOMYCIN] | > 128 µg/mL | 32 µg/mL (≈ 22.1 µM) | – | – | – | – | – | – | – | – | – | – | – | – | – | – | – | – | – | – | –
Cc1c(N2CC[C@H](O)C2)c(F)cn2c(=O)c(C(=O)O)cc(C3CC3)c12 | – | – | 0.1 µg/mL (≈ 0.289 µM) | 0.1 µg/mL (≈ 0.289 µM) | 0.01 µg/mL (≈ 0.0289 µM) | 3.1 µg/mL (≈ 8.95 µM) | 0.39 µg/mL (≈ 1.13 µM) | 1.5 mg/kg | > 10 mg/kg | 0.005 µg/mL (≈ 0.0144 µM) | 5.3 mg/kg | 0.39 µg/mL (≈ 1.13 µM) | 0.05 µg/mL (≈ 0.144 µM) | 0.39 µg/mL (≈ 1.13 µM) | 0.005 µg/mL (≈ 0.0144 µM) | 0.02 µg/mL (≈ 0.0577 µM) | – | – | – | – | ED50 (Streptococcus pneumoniae [6]): > 2 mg/kg
Cc1c(N2C[C@@H]3CCCN[C@@H]3C2)c(F)cn2c(=O)c(C(=O)O)cc(C3CC3)c12 (stereo in doubt; (S,S)45n) | – | – | – | – | – | 3.1 µg/mL (≈ 8.04 µM) | 0.2 µg/mL (≈ 0.519 µM) | – | 3.6 mg/kg | – | – | – | – | – | – | – | > 8 mg/kg | – | – | – | MIC (Streptococcus pyogenes): 0.05 µg/mL (≈ 0.13 µM); ED50 (Streptococcus pneumoniae [17]; [25]): 2.2 mg/kg
CC(NC(=O)C(C)NC1CCN(c2nc3c(-c4ccc(F)cc4F)cc(C(=O)O)c(=O)n3cc2F)C1)C(=O)O (configuration not stated) | – | – | – | – | – | – | – | 2.8 mg/kg | 49.7 mg/kg | – | 3 mg/kg | – | – | – | – | – | 14.8 mg/kg | 68.8 mg/kg | < 2.5 mg/kg | – | ED50 [18]: 14.3 mg/kg; ED50 (Streptococcus pneumoniae [8]; [25]): 140 mg/kg; solubility (physchem): 1000 µg/mL (≈ 1830 µM)
CNC1CCN(c2c(F)cn3c(=O)c(C(=O)O)cc(C4CC4)c3c2C)C1 (configuration not stated) | 0.5 µg/mL (≈ 1.39 µM) | 0.06 µg/mL (≈ 0.167 µM) | 0.02 µg/mL (≈ 0.0556 µM) | 0.1 µg/mL (≈ 0.278 µM) | 0.005 µg/mL (≈ 0.0139 µM) | 1.56 µg/mL (≈ 4.34 µM) | 0.2 µg/mL (≈ 0.556 µM) | 0.9 mg/kg | – | 0.02 µg/mL (≈ 0.0556 µM) | < 3.1 mg/kg | 0.39 µg/mL (≈ 1.09 µM) | 0.1 µg/mL (≈ 0.278 µM) | 1.56 µg/mL (≈ 4.34 µM) | 0.02 µg/mL (≈ 0.0556 µM) | 0.005 µg/mL (≈ 0.0139 µM) | 2.8 mg/kg | 7.2 mg/kg | 0.7 mg/kg | 0.08 µg/mL (≈ 0.223 µM) | ED50 (Escherichia coli): 1.1 mg/kg; MIC (Streptococcus pyogenes; [26]): 0.05 µg/mL (≈ 0.139 µM)
Cc1c(N2C[C@@H]3CCCN[C@@H]3C2)c(F)cn2c(=O)c(C(=O)O)cc(C3CC3)c12 (stereo in doubt; 45n) | 0.5 µg/mL (≈ 1.3 µM) | 0.06 µg/mL (≈ 0.156 µM) | – | – | – | – | – | – | 12.5 mg/kg | – | – | – | – | – | – | – | – | – | – | – | MIC [4]: 3.1 µg/mL (≈ 8.04 µM); ED50 (Streptococcus pneumoniae [6]): 4.4 mg/kg; MIC (Streptococcus pyogenes): 0.01 µg/mL (≈ 0.0259 µM)
Cc1c(N2CC[C@@H](N)C2)c(F)cn2c(=O)c(C(=O)O)cc(C3CC3)c12 | – | – | 0.01 µg/mL (≈ 0.029 µM) | 0.1 µg/mL (≈ 0.29 µM) | 0.005 µg/mL (≈ 0.0145 µM) | 1.56 µg/mL (≈ 4.52 µM) | 0.05 µg/mL (≈ 0.145 µM) | 0.9 mg/kg | – | 0.01 µg/mL (≈ 0.029 µM) | < 3.1 mg/kg | 0.2 µg/mL (≈ 0.579 µM) | 0.05 µg/mL (≈ 0.145 µM) | 1.56 µg/mL (≈ 4.52 µM) | 0.02 µg/mL (≈ 0.0579 µM) | 0.005 µg/mL (≈ 0.0145 µM) | 2.4 mg/kg | 6.2 mg/kg | 0.3 mg/kg | 0.15 µg/mL (≈ 0.434 µM) | ED50 [18]: 1 mg/kg; Cmax [21]: 80 ng/mL; MIC (Streptococcus pyogenes; [26]): 0.05 µg/mL (≈ 0.145 µM); bioavailability (in vivo [22]): 10%; half-life (in vivo [23]): 1.1 h
Cc1c(N2CC[C@@H]([C@H](C)N)C2)c(F)cn2c(=O)c(C(=O)O)cc(C3CC3)c12 | – | – | 0.01 µg/mL (≈ 0.0268 µM) | < 0.001 µg/mL | 0.005 µg/mL (≈ 0.0134 µM) | 1.56 µg/mL (≈ 4.18 µM) | 0.05 µg/mL (≈ 0.134 µM) | < 0.2 mg/kg | < 3.1 mg/kg | < 0.001 µg/mL | 7.2 mg/kg | 0.2 µg/mL (≈ 0.536 µM) | < 0.001 µg/mL | 0.05 µg/mL (≈ 0.134 µM) | < 0.001 µg/mL | < 0.001 µg/mL | 1 mg/kg | 13 mg/kg | 0.5 mg/kg | 0.3 µg/mL (≈ 0.803 µM) | ED50 [18]: 3.3 mg/kg; MIC (Streptococcus pyogenes; [26]): < 0.001 µg/mL; ED50 (Streptococcus pneumoniae [17]): < 1.3 mg/kg
Cc1c(N2CCC(n3cccc3)C2)c(F)cn2c(=O)c(C(=O)O)cc(C3CC3)c12 (configuration not stated) | 0.5 µg/mL (≈ 1.26 µM) | 0.03 µg/mL (≈ 0.0759 µM) | 0.39 µg/mL (≈ 0.986 µM) | 0.2 µg/mL (≈ 0.506 µM) | 0.05 µg/mL (≈ 0.126 µM) | 25 µg/mL (≈ 63.2 µM) | 1.56 µg/mL (≈ 3.95 µM) | – | – | 0.02 µg/mL (≈ 0.0506 µM) | – | 1.56 µg/mL (≈ 3.95 µM) | 0.1 µg/mL (≈ 0.253 µM) | 0.39 µg/mL (≈ 0.986 µM) | 0.01 µg/mL (≈ 0.0253 µM) | 0.1 µg/mL (≈ 0.253 µM) | – | – | – | 0.04 µg/mL (≈ 0.101 µM) | MIC (Streptococcus pyogenes; [26]): 0.1 µg/mL (≈ 0.253 µM)
